The results in this text go back to patent US12187722B2, “Small molecule inhibitors of TEAD transcription factors” (The General Hospital Corporation, priority 2019, dated 2025).

Where “and” joins values, the source holds several entries; their conditions need not be identical. Identical values can stand only once. Like-named read-outs stand apart in the source and are kept apart here.

The target of test [1] is T1, TEAD2 (Homo sapiens (Human), UniProt Q15562). Kind of test: CMP assay (CPM fluorescence detection of free CoA). The test is classed as biochemical. The procedure: 7-Diethylamino-3-(4′-Maleimidylphenyl)-4-Methylcoumarin (CPM), which reacts with thiol of CoA liberated in the enzymatic reaction, and gives fluorescent signal (excitation ˜350-380, emission-460-480). The assay detects the product (free CoA) which is produced from palmitoyl-CoA as a method to detect the enzymatic activity. Test compounds that inhibit TEAD activity are therefore able to block the CMP fluorescent signal.
TEAD2/4 protein (10 μL of a 50 ng/μL solution) and a solution the test compound (0.5 μL, variable concentration) were pre-incubated for 30 min at r.t. A mixture prepared from MES pH 6.4 buffer (6.5 μL of a 50 mM solution), EDTA (1 μL of a 20 mM solution), palmitoyl-CoA (1 μL of a 20 μM solution), and 7-diethylamino-3-(4′-maleimidylphenyl)-4-methylcoumarin (1 μL of a 10 μM solution) was added and the resulting mixture was mixed well using a pipette. The solution was then incubated at r.t. for 30-120 min. in the dark, and fluorescence was detected at […] every 30 min. until the fluorescence signal is saturated. An IC50 for the ability of the compound to inhibit fluorescence is calculated from the results.

Test [2] deals with T1, TEAD2. Kind of test: In vitro palmitoylation (TEAD2 autopalmitoylation, streptavidin blot). The conditions noted are these: compound at 10 μM. The class given is biochemical. The procedure, abridged:
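Recombinant GST- or His6-TEAD2 (500 ng) preincubated 15 min with compound, then 30 min with 1 μM alkyne palmitoyl-CoA; click-labelled with biotin-azide (1 h, RT). Streptavidin-HRP blot band intensity quantified after SDS-PAGE; inhibition of autopalmitoylation relative to DMSO control.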

Where [3] appears, read: Table 3, unit inferred, read-out: TEAD2 palmitoylation IC50.
Setting [4] is: Table 2, read-out: IC50 μM (CMP assay).

T1 sequence (Q15562 whole entry): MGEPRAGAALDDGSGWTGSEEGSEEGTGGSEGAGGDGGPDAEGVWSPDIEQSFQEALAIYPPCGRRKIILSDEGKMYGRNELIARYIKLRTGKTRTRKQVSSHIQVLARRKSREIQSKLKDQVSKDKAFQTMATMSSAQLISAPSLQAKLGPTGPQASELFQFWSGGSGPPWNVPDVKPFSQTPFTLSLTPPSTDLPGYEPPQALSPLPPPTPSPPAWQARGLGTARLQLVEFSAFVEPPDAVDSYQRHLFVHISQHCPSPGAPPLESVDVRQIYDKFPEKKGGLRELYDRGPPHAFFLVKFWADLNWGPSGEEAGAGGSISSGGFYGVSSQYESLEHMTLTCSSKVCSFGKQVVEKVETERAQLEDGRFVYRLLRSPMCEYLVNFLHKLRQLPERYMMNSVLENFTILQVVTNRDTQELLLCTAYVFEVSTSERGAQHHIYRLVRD

With `COc1ccc(Nc2ccc(N(C)c3ccc(S(F)(F)(F)(F)F)cc3)cc2)c(C(=O)O)c1` [CP-528], the IC50 (in general, the concentration at which inhibition is half-maximal) on TEAD2 [1] (setting [3]) came to 0.38 µM. For the same molecule, the inhibition – broadly, how much of the control response was suppressed – at 10 µM against TEAD2 [2] (Table 3) turned out to be 76%.
As to `COc1ccc(Nc2ccc(N(C)c3ccc(C4CCC(C)CC4)cc3)cc2)c(C(=O)O)c1` (stereo not shown) [CP-584], the IC50 at TEAD2 [1] (setting [3]) stood at 0.21 µM. The “% of inhibition of TEAD2 palmitoylation at 10 μM” value (“% of inhibition … at 10 μM” for short) at TEAD2 [2] (Table 3) worked out at 85%.
Regarding `Cc1cc(N(C)c2ccc(C3CCCCC3)cc2)ccc1Nc1ccc(OC2CC2)cc1C(=O)O` [CP-619], the IC50 on TEAD2 [1] (setting [3]) was 0.75 µM. The same molecule returned an inhibition at 10 µM on TEAD2 [2] (Table 3) of 96%.
For `O=C(O)c1ccccc1Nc1ccc(Oc2ccc(C3CCCCC3)cc2Cl)nc1` [CP-566] the same measures were 0.38 µM and 99%.
The like results for `COc1ccc(Nc2ccc(N(C)c3ccc(C4CCCCC4)cc3)nc2)c(C(=O)O)c1` [CP-598] were, in that order, 0.05 µM and 74%.
For `COc1ccc(Nc2ccc(N(C)c3ccc(C4CC5CCC4C5)cc3)cc2F)c(C(=O)O)c1` (stereo not shown) [CP-585] the same measures were 0.32 µM and 86%.
Consider `COc1ccc(Nc2ccc(N(C)c3ccc(OC(F)(F)F)cc3)cc2C)c(C(=O)O)c1` [CP-590], for which the IC50 at TEAD2 [1] (setting [3]) stood at 0.22 µM. Moreover, the inhibition at 10 µM against TEAD2 [2] (Table 3) worked out at 96%.
Consider `CN(c1ccc(N(C)c2ncccc2C(=O)O)cc1)c1ccc(C23CC4CC(CC(C4)C2)C3)cc1Cl` [Compound 109], for which the IC50 at TEAD2 [1] (setting [4]) was 0.346 µM. Moreover, testing at 10 µM on TEAD2 [2] (Table 2) gave an inhibition of 100%.
The like results for `CC12CC3CC(C)(C1)CC(c1ccc(Oc4ccc(Nc5ncccc5C(=O)O)cc4)c(Cl)c1)(C3)C2` [Compound 254] were, in that order, 0.297 µM and 100%.
Regarding `COc1ccc(Nc2ccc(N(C)c3ccc(C4CCCCC4)cc3)cc2C2CC2)c(C(=O)O)c1` [CP-626], the IC50 on TEAD2 [1] (setting [3]) was 0.382 µM. The molecule also gave an inhibition at 10 µM at TEAD2 [2] (Table 3) of 87%.
For `COc1ccc(Nc2ccc(N(C)c3ccc(C4CCCCC4)cc3)cc2)c(C(=O)O)c1` [CP-522] the same measures were 1.53 µM and 96%.
For `COc1ccc(Nc2ccc(N(C)c3ccc(C(F)(F)F)cc3)cc2)c(C(=O)O)c1` [CP-521] the same measures were 1.45 µM and 93%.
The like results for `COc1ccc(Nc2ccc(N(C)c3ccc(C45CC6CC(CC(C6)C4)C5)cc3)cc2C)c(C(=O)O)c1` [CP-551] were, in that order, 0.002 µM and 91%.
Regarding `CN(c1ccc(N(C)c2ccccc2C(=O)O)cc1)c1ccc(C23CC4CC(CC(C4)C2)C3)cc1` [Compound 100], on TEAD2 [1] (setting [4]), the IC50 is 0.207 µM. Moreover, 10 µM produced 100% inhibition against TEAD2 [2] (Table 2).
Take `COc1ccc(Nc2ccc(N(C)c3ccc(C4CCC(C)(C)CC4)cc3)cc2)c(C(=O)O)c1` [CP-593]: the IC50 on TEAD2 [1] (setting [3]) came out at 0.03 µM. For the same molecule, on TEAD2 [2] (Table 3), the inhibition at 10 µM was found to be 78%.
For the molecule `CN(c1ccc(Nc2ccc(C34CC5CC(CC(C5)C3)C4)cc2Cl)cc1)c1ncccc1C(=O)O` [Compound 125], the IC50 at TEAD2 [1] (setting [4]) was 0.771 µM. The molecule also displayed an inhibition at 10 µM against TEAD2 [2] (Table 2) of 96%.
Consider `O=C(O)c1cccnc1Nc1cnn(Cc2ccc(C34CC5CC(CC(C5)C3)C4)cc2Cl)c1` [Compound 112], for which the IC50 on TEAD2 [1] (setting [4]) turned out to be 0.268 µM. At TEAD2 [2] (Table 2), 10 µM produced 100% inhibition.
For `COc1ccc(Nc2ccc(N(C)c3ccc(N4CCCCC4)cc3)cc2)c(C(=O)O)c1` [CP-555], the IC50 at TEAD2 [1] (setting [3]) turned out to be 0.01 µM. Besides, on TEAD2 [2] (Table 3), at 10 µM the inhibition was 100%.
Regarding `O=C(O)c1cccnc1Nc1ccc(Oc2ccc(C34CC5CC(CC(C5)C3)C4)cc2Cl)cc1` [Compound 252], the IC50 on TEAD2 [1] (setting [4]) was 0.053 µM. The same molecule registered an inhibition at 10 µM on TEAD2 [2] (Table 2) of 100%.
For `COc1ccc(Nc2ccc(Oc3ccc(C45CC6CC(C)(CC(C)(C6)C4)C5)cc3Cl)cc2F)c(C(=O)O)c1` [CP-570], at TEAD2 [1] (setting [3]), the 50% inhibitory concentration (IC50) amounted to 0.65 µM. At TEAD2 [2] (Table 3), the inhibition at 10 µM came out at 73%.
With `O=C(O)c1ccccc1Nc1ccc(Nc2ccc(C34CC5CC(CC(C5)C3)C4)cc2Cl)cc1` [Compound 31], the IC50 at TEAD2 [1] (setting [4]) stood at 0.377 µM. For the same molecule, on TEAD2 [2] (Table 2), the “% of inhibition … at 10 μM” value is 84% and 82%; 10 µM produced 99% inhibition.
As to `COc1ccc(Nc2ccc(N(C)c3ccc(C4CCCCC4)cc3)cc2C)c(C(=O)O)c1` [CP-560], on TEAD2 [1] (setting [3]), the IC50 was found to be 0.011 µM. Moreover, on TEAD2 [2] (Table 3), the inhibition at 10 µM turned out to be 90%.
On to `O=C(O)c1cccc(Nc2cc(Nc3ccc(C45CC6CC(CC(C6)C4)C5)cc3Cl)cc(C(F)(F)F)c2)n1` [Compound 119], for which the IC50 on TEAD2 [1] (setting [4]) was found to be 0.106 µM. The same molecule displayed an inhibition at 10 µM against TEAD2 [2] (Table 2) of 100%.
The like results for `CN(c1ccc(N(C)c2ccccc2C(=O)O)cc1)c1ccc(C23CC4CC(C)(CC(C)(C4)C2)C3)cc1` [Compound 178] were, in that order, 0.227 µM and 100%.
Turning to `COc1ccc(Nc2ccc(N(C)c3ccc(OCC(F)(F)F)cc3)cc2)c(C(=O)O)c1` [CP-553], the IC50 on TEAD2 [1] (setting [3]) is 0.59 µM. This molecule also returned an inhibition at 10 µM on TEAD2 [2] (Table 3) of 100%.
For the molecule `O=C(O)c1cccc(Nc2ccc(Nc3ccc(C45CC6CC(CC(C6)C4)C5)cc3Cl)cc2)n1` [Compound 90], the IC50 on TEAD2 [1] (setting [4]) worked out at 0.446 µM. This molecule also came in with an inhibition at 10 µM at TEAD2 [2] (Table 2) of 98%.
The like results for `COc1ccc(Nc2ccc(N(C)c3ccc(C45CC6CC(CC(C6)C4)C5)cc3)cc2)c(C(=O)O)c1` [Compound 250] were, in that order, 0.274 µM and 89%.
Consider `COc1ccc(Nc2ccc(N(C)c3ccc(S(F)(F)(F)(F)F)cc3)cc2C)c(C(=O)O)c1` [CP-571], for which the IC50 at TEAD2 [1] (setting [3]) was 0.36 µM. The inhibition at 10 µM against TEAD2 [2] (Table 3) was 94%.
Take `COc1ccc(Nc2ccc(N(C)c3ccc(OCC(F)(F)F)cc3)cc2C)c(C(=O)O)c1` [CP-565]: at TEAD2 [1] (setting [3]), the IC50 worked out at 0.51 µM. Besides, at TEAD2 [2] (Table 3), testing at 10 µM gave an inhibition of 100%.
`CN(c1ccc(N(C)c2ncccc2C(=O)O)cc1)c1ccc(C23CC4CC(CC(C4)C2)C3)cc1` [Compound 139]: at TEAD2 [1] (setting [4]), the IC50 came to 0.312 µM. This molecule returned an inhibition at 10 µM on TEAD2 [2] (Table 2) of 95%.
For the molecule `COc1ccc(Nc2ccc(N(C)c3ccc(C4CCC(C)CC4)cc3)cc2)c(C(=O)O)c1` (stereo not shown) [CP-583], on TEAD2 [1] (setting [3]), the IC50 turned out to be 0.23 µM. Moreover, the “% of inhibition … at 10 μM” value on TEAD2 [2] (Table 3) stood at 96%.
With `O=C(Cc1ccc(Nc2ncccc2C(=O)O)cc1)Nc1ccc(C23CC4CC(CC(C4)C2)C3)cc1` [Compound 184], the inhibition at 10 µM against TEAD2 [2] (Table 2) was 71%.
Same read-out and setting: in the case of `CCCCN(c1ccccc1)c1ccc(NC(=O)c2cccc(Nc3ncccc3C(=O)O)c2)cc1` [Compound 266] it was 81%.
The molecule `Cc1ccc(Nc2ccc(N(C)c3ccc(C4CCCCC4)cc3)cc2C)c(C(=O)O)c1` [CP-631] showed an inhibition at 10 µM on TEAD2 [2] (Table 3) of 81%.
Same read-out and setting: in the case of `O=C(O)c1ccccc1Nc1cnc(Oc2ccc(C34CC5CC(CC(C5)C3)C4)cc2Cl)cn1` [CP-540] it was 75%.
For the molecule `CC(C)c1ccccc1-c1ccc(NC(=O)c2cccc(Nc3ccccc3C(=O)O)c2)cc1` [Compound 224], the inhibition at 10 µM on TEAD2 [2] (Table 2) was determined as 81%.
As for `O=C(Nc1ccc(C2CCCCC2)cc1Cl)c1cccc(Nc2ncccc2C(=O)O)c1` [CP-665], on TEAD2 [2] (Table 3), testing at 10 µM gave an inhibition of 96%.
At TEAD2 [2] (Table 2), `O=C(O)c1ccccc1C(=O)Nc1cccc(Nc2ccc(C34CC5CC(CC(C5)C3)C4)cc2)c1` [compound 292] yielded an inhibition at 10 µM of 97%.
`Cc1cc(N(C)c2ccc(C3CCCCC3)cc2)ccc1Nc1ccc(OC(F)(F)F)cc1C(=O)O` [CP-580]: the inhibition at 10 µM against TEAD2 [2] (Table 3) came to 58%.
Still for that read-out and setting: in the case of `COc1ccc(Nc2ccc(N(C)c3ccc(C45CC6CC(CC(C6)C4)C5)cc3)cc2F)c(C(=O)O)c1` [CP-537] it was 73%.
Regarding `CC(C)(C)OC(=O)c1ccc(Nc2ccc(Nc3ccccc3C(=O)O)cc2)cc1`, at 10 µM the inhibition on TEAD2 [2] was 100%.
